Test [1] relates to R13.2 (DNA, aptamer) TGTACCGTCTGAGCGATTCGTACTGTGGGCACCAATCGTACCCAATACTTGCGAATCAGCCAGTCAGTGTTAAGGAGTGC
The test is described as follows: competitive elution of labelled DNA from bromacil beads, fluorescence. As to conditions: 100 mM NaCl, 2 mM MgCl2, 20 mM Tris-HCl, 0.01% methanol, 1 μM free compound.

Test [2] has the same test system. Kind of test: fluorescence saturation binding on magnetic beads. As to conditions: 100 mM NaCl, 2 mM MgCl2; immobilised compound (biotinylated bromacil on streptavidin beads); 20 mM Tris-HCl; 5 min.

On to `Cn1ccc(=O)[nH]c1=O`, for which, in test [1] (0.28 ± 0.09 RFU against 0.51 for bromacil), the binding result was “weak”.

Take `CCNc1nc(Cl)nc(NC(C)C)n1`: the binding result in test [1] (0.22 ± 0.15 RFU against 0.51 for bromacil) was “weak”.

In turn, `CCC(C)n1c(=O)[nH]c(C)c(Br)c1=O` (stereo not shown) displayed an equilibrium dissociation constant (Kd) in test [2] of 9.6 ± 7.8 nM. In addition, the binding entry in test [1] (100 nM DNA, 0.51 ± 0.16 RFU (blank -0.0045)) was “yes”.

For orientation: Kd means the concentration at which binding is half-saturated.
